Laboratory results from patent US9567380B1, “Microtubule organizing center (MTOC)-inactivating peptides” (THE RESEARCH FOUNDATION FOR THE STATE UNIVERSITY OF NEW YORK, priority 2015, dated 2017).
Entries after “also recorded” stand apart in the source; their conditions may differ. Ends that are not written are not given here.

How the values were obtained:
[1] = molecular target: human γ-TuRC (centrosome MTOC of human breast cancer cells) (human) (UniProt P23258); assay: cell-based or functional assay
human γ-TuRC = molecular target: T1, human γ-TuRC (Homo sapiens, UniProt P23258+Q9BSJ2); assay: In vitro γ-TuRC microtubule nucleation assay; assay type: biochemical; conditions: whole-cell extract from human breast cancer cells; final peptide concentration 60 nM
T1 construct: All other samples use whole-cell extract from human breast cancer cells; endogenous in cells; host or cells: human breast cancer cells (whole-cell extract)
Protocol: In vitro microtubule nucleation assays were performed in a total volume of 5 μL. That is, 3 μL for the sample and 2 μL of tubulin at a 1:5 ratio of Rhodamine:unlabeled tubulin (Cytoskeleton, Inc.). Total tubulin concentration was 3.75 μg/μL in 2.5× tubulin working buffer (2.5×BRB80: 200 mM PIPES, 2.5 mM MgCl2, 2.5 mM EGTA at pH 6.8 and 2.5 mM GTP). For whole cell extract nucleation analysis with peptide, 2 μL of whole cell extract was added with 1 μL of peptide at 300 nM for a final peptide concentration of 60 nM. This 3 μL combination was added first followed by tubulin working buffer. For samples with no peptide, the 5 μL final volume was comprised of 3 μL RIPA buffer and 2 μL of whole cell extract. The 5 μL reaction was combined on ice, quickly spun and returned to ice before incubating in a 37° C. water bath for 4 minutes. Sample incubation was staggered at 20 s intervals to allow for pipetting. After 4 minutes, 50 μL of 1% glutaraldehyde fixing solution was added and tubes were incubated at room temperature for 3 minutes. Samples were completed by addition of 1 mL 1×BRB80, inverting multiple times to mix. […] Images of multiple fields were collected and the average microtubule number per field was determined.

MDA-MB-231 cells = assay: Mitotic arrest after live cell peptide transfection (Chariot) of MDA-MB-231 cells; assay type: cell-based, human
Protocol: (§1) MCF-7 and MDA-MB-231 (ATCC) cells were maintained in 25 cm^2 tissue culture treated Corning flasks (Sigma-Aldrich) in DMEM complete medium with Glutamax-1 and supplemented with 10% fetal bovine serum. MCF-7 DMEM complete medium was additionally supplemented with 0.01 mg/mL bovine insulin (Sigma-Aldrich). Flasks were maintained at 37° C. in 5% CO2, 95% air, and cells were passaged every 5-7 days using 1 mL TrypLE (Life Technologies).
(§2) For live cell peptide transfection we used the Chariot system (Active Motif) according to the manufacturer's instructions. Cells were seeded into 35 mm tissue culture-treated dishes containing coverslips and grown in complete medium to ˜60% confluency. 1 μg of Kinesin-14 Tail peptide PγTR (GenScript) was diluted in 100 μL 1×PBS on ice. 6 μL of 1/10 PBS-diluted Chariot reagent was further diluted into 100 μL sterile water on ice in a separate tube. Diluted peptide and diluted Chariot were combined and incubated at room temperature for 30 minutes to allow the Chariot-peptide complex to form. Following incubation, media was aspirated from cells, which were then washed once in 1×PBS. The entire 200 μL volume was added to cells in 400 μL serum-free media and gently rocked to ensure even delivery. Plates were returned to 37° C. for 1 hr. Next, DMEM complete growth medium was added to 2 mL without removing the peptide delivery solution (108 μM peptide in 2 mL). Cells were further incubated at 37° C. overnight and fixed after 24 hours.
Human cells were fixed on glass coverslips in −20° C. methanol for 10 minutes, washed with 1×PBS and permeabilized in 0.5% Triton X-100 for 20 minutes. Following further washes, cells were blocked for 30 minutes in 1% bovine serum albumin/knock out serum replacement (BSA/KOSR). […]
(§3) For statistical analysis of phenotypes, n values were chosen as number of cells per strain needed to ensure adequate power to detect significant outcomes. […] For cell cycle arrest by 1 μg transfection of PγTR, 12 fields at 200× were counted. […]

[2] = test system: human MCF-7 breast cancer cells; assay: Mitotic arrest after live cell peptide transfection (Chariot) of MCF-7 cells; assay type: cell-based
Protocol: as §1, §2
Human cells were fixed on glass coverslips in −20° C. methanol for 10 minutes, washed with 1×PBS and permeabilized in 0.5% Triton X-100 for 20 minutes. Following further washes, cells were blocked for 30 minutes in 1% bovine serum albumin/knock out serum replacement (BSA/KOSR). For peptide localization to centrosomes, 1 μg/mL of peptide was applied after blocking and before primary antibody application. Antibodies used were primary mouse anti-γ-tubulin monoclonal (1:5,000; Sigma-Aldrich cat. T5326) or primary mouse anti-α-tubulin monoclonal DM1A (1:1,000; Santa Cruz Biotech cat. sc-32293), primary His-tag polyclonal antibody (1:1,000; Cell Signaling cat. 2365), secondary goat anti-mouse Alexa Fluor 488 IgG (1:1,000; Life Technologies cat. A-11001) and secondary goat anti-rabbit Texas Red (1:1,000; Life Technologies cat. T-6391). Antibodies were diluted in 1% BSA/KOSR antibody dilution buffer. […]
as §3

T1 sequence (P23258 whole entry): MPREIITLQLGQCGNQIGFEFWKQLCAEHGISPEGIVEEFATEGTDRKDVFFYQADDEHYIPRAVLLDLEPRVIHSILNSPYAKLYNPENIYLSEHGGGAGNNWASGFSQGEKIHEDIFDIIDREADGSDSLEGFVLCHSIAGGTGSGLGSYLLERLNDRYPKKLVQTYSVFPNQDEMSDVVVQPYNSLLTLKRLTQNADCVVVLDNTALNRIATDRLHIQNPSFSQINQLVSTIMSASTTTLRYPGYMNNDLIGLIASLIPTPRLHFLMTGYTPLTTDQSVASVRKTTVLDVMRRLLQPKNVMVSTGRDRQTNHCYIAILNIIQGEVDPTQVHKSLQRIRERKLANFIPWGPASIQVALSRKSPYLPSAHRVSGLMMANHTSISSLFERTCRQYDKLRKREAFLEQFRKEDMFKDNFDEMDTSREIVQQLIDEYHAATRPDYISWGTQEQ
T1 sequence (Q9BSJ2 whole entry): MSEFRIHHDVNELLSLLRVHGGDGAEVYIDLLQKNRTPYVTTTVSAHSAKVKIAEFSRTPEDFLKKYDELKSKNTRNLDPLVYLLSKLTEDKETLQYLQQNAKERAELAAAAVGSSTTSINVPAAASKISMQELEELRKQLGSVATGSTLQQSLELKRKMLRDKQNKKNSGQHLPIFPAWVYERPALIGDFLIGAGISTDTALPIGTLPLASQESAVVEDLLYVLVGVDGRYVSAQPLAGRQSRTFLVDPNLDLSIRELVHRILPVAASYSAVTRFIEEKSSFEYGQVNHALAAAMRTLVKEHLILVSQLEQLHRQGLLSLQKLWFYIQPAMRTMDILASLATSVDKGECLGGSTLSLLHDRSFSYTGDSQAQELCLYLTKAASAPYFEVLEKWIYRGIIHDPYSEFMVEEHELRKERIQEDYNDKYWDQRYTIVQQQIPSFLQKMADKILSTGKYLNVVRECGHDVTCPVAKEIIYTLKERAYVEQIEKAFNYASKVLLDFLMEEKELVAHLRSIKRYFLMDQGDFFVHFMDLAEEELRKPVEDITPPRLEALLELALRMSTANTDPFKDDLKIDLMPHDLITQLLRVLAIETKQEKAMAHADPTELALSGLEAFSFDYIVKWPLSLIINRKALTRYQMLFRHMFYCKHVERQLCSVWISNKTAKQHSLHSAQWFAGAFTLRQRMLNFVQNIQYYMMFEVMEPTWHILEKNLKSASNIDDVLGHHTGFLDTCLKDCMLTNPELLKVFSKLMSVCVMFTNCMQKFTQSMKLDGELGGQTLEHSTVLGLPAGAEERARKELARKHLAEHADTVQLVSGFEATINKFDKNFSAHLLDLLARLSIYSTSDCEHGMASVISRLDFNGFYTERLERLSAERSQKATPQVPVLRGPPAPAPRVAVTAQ
human γ-TuRC (centrosome MTOC of human breast cancer cells) (human), sequence (P23258 whole entry, chain 1 of 2): as the sequence (P23258 whole entry) above
human γ-TuRC (centrosome MTOC of human breast cancer cells) (human), sequence (Q9BSJ2 whole entry, chain 2 of 2, further chain): as the sequence (Q9BSJ2 whole entry) above

6-His tagged Kinesin-14 Tail peptide PγTR (γ-TuRC targeting and regulatory peptide)
cells arrested in mitosis 24 hours after transfection, MCF-7 [1]: 39%
cells arrested in mitosis 24 hours after transfection, MDA-MB-231 [1]: 22.6%

YSKFKESAAPQLKDLIGSGAEKDHEYSLQLQ (also: 6-His tag, end not given here) [PγTR, Kinesin-14 Pkl1 Tail peptide, γ-TuRC targeting and regulatory; used 6-His tagged]
block of γ-TuRC microtubule nucleation (in words) (human γ-TuRC): potent inhibitor of nucleation; also recorded: blocks the γ-TuRC MTOC nucleation
mitotic arrest (in words) (MDA-MB-231 cells; MDA-MB-231 (high aggressiveness), live cell transfection): can mitotically arrest both the MCF-7 low and MDA-MB-231 high aggressive cell lines with similar efficiency
share of cells receiving peptide that were arrested in mitosis (MDA-MB-231 cells; MDA-MB-231, 24 h, value in brackets in FIG. 13G legend): 82%
cells arrested in mitosis (MDA-MB-231 cells; MDA-MB-231, 24 h after transfection with 1 μg peptide, arrested peptide-positive cells as percentage of entire population, 12 fields at 200×): 22.6%
mitotic arrest (in words) ([2]; MCF-7 (low aggressiveness), live cell transfection): can mitotically arrest both the MCF-7 low and MDA-MB-231 high aggressive cell lines with similar efficiency
share of cells receiving peptide that were arrested in mitosis ([2]; MCF-7, 24 h, value in brackets in FIG. 13G legend): 90%
cells arrested in mitosis ([2]; MCF-7, 24 h after transfection with 1 μg peptide, arrested peptide-positive cells as percentage of entire population, 12 fields at 200×): 39%
spindle formation by α-tubulin staining ([2]; MCF-7 cells arrested by peptide, live cell transfection): No spindle formation
